The values below come from patent US9957265B2, “N-(2-cyano heterocyclyl) pyrazolo pyridones as janus kinase inhibitors” (Merck Sharp & Dohme Corp., priority 2013, dated 2018).

The target of one test is JAK1 (Homo sapiens (Human), UniProt P23458). The experiment in a line: Jak Biochemical HTRF Assay (JAK1). The conditions noted are these: recombinant GST-tagged catalytic domain, [ATP] 31.8 μM, unit not given (compound concentrations tested given in nM). The source says: Jak Biochemical HTRF Assay Protocol
Subsequent reagent additions employed an Agilent Bravo.
Background: TR-FRET usually uses a lanthanide donor and a delayed reading to cut background.

The next test concerns the target JAK2 (Homo sapiens (Human), UniProt O60674). The experiment in a line: Jak Biochemical HTRF Assay (JAK2).
[1] abbreviates: JAK2 IC50, recombinant GST-tagged catalytic domain, [ATP] 8.5 μM, unit not given (compound concentrations tested given in nM).
The mark [2] stands for this setting: read-out: JAK2 IC50, recombinant GST-tagged catalytic domain, [ATP] 8.5 μM, unit not given (compound concentrations tested given in nM).

Read-outs that look alike come from different tables or passages of the source.

JAK1, sequence (P23458 875-1153): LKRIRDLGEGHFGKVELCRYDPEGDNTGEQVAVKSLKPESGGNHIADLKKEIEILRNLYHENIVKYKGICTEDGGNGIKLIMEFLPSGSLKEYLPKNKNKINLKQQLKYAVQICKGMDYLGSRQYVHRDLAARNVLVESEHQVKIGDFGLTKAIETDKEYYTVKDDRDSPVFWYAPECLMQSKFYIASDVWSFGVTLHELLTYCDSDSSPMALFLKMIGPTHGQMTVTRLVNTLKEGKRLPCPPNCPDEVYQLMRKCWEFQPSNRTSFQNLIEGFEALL
JAK2, sequence (O60674 849-1124): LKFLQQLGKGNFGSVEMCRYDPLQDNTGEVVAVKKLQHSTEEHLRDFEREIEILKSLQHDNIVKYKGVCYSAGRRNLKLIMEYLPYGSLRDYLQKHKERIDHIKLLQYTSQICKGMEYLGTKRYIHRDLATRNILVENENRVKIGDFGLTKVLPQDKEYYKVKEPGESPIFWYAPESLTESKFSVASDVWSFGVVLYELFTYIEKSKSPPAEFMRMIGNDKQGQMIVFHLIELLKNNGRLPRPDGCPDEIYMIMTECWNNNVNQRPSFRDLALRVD

In the case of `CC1c2cc(Nc3nn([C@H]4COCC[C@@H]4C#N)c4cc[nH]c(=O)c34)ccc2S(=O)(=O)N1C` (single isomer, unassigned) [Example 1-34, (3R,4S)-3-(3-(((R or S)-2,3-dimethyl-1,1-dioxido-2,3-dihydrobenzo[d]isothiazol-5-yl)amino)-4-oxo-4,5-dihydro-1H-pyrazolo[4,3-c]pyridin-1-yl)tetrahydro-2H-pyran-4-carbonitrile], the results for the IC50 at JAK1 and on JAK2 (setting [1]) were 0.03 nM and 1.18 nM, respectively.
Turning to `CC1(C)C(=O)Nc2cc(Nc3nn([C@H]4COCC[C@@H]4C#N)c4cc[nH]c(=O)c34)ccc21` [Example 2-2, (3R,4S)-3-{3-[(3,3-dimethyl-2-oxo-2,3-dihydro-1H-indol-6-yl)amino]-4-oxo-4,5-dihydro-1H-pyrazolo [4,3-c]pyridin-1-yl}tetrahydro-2H-pyran-4-carbonitrile], the IC50 at JAK1 amounted to 0.05 nM; at JAK2 (setting [2]), 0.16 nM.
Regarding `CN(C(C)(C)C)S(=O)(=O)c1ccc(Nc2nn([C@H]3COCC[C@@H]3C#N)c3cc[nH]c(=O)c23)cc1` [Example 1-12, N-(tert-butyl)-4-((1-((3R,4S)-4-cyanotetrahydro-2H-pyran-3-yl)-4-oxo-4,5-dihydro-1H-pyrazolo[4,3-c]pyridin-3-yl)amino)-N-methylbenzenesulfonamide], the IC50 on JAK1 was 0.1 nM; on JAK2 (setting [2]), 0.3 nM.
For the compound `N#C[C@H]1CCOC[C@@H]1n1nc(Nc2ccc(C(N)C(F)(F)F)cc2)c2c(=O)[nH]ccc21` (single isomer, unassigned) [Example 1-9, (3R,4S)-3-(3-((4-((S or R)-1-amino-2,2,2-trifluoroethyl)phenyl)amino)-4-oxo-4,5-dihydro-1H-pyrazolo[4,3-c]pyridin-1-yl)tetrahydro-2H-pyran-4-carbonitrile], the IC50 came out at 0.09 nM on JAK1 and 0.29 nM at JAK2 (setting [1]).
With `C[C@H]1CN(S(=O)(=O)c2ccc(Nc3nn([C@H]4COCC[C@@H]4C#N)c4cc[nH]c(=O)c34)cc2)C[C@H](C)O1` (stereo in doubt) [Example 1-76, (3R,4S)-3-{3-[(4-{[(trans)-2,6-dimethylmorpholin-4-yl]sulfonyl}phenyl)amino]-4-oxo-4,5-dihydro-1H-pyrazolo[4,3-c]pyridin-1-yl}tetrahydro-2H-pyran-4-carbonitrile], the IC50 at JAK1 worked out at 0.24 nM; at JAK2 (setting [2]), 0.82 nM.
Consider `COC(C)(c1ccc(Nc2nn([C@H]3COCC[C@@H]3C#N)c3cc[nH]c(=O)c23)cc1)C(F)(F)F` (single isomer, unassigned) [Example 1-33, (3R,4S)-3-(4-oxo-3-((4-((S or R)-1,1,1-trifluoro-2-methoxypropan-2-yl)phenyl)amino)-4,5-dihydro-1H-pyrazolo[4,3-c]pyridin-1-yl)tetrahydro-2H-pyran-4-carbonitrile], for which the IC50 was 0.04 nM on JAK1 and 0.09 nM at JAK2 (setting [1]).
The matching figures for `N#C[C@H]1CCOC[C@@H]1n1nc(Nc2ccc(C(NC3CCC3)C(F)(F)F)cc2)c2c(=O)[nH]ccc21` (single isomer, unassigned) [Example 1-93, (3R,4S)-3-[3-({4-[(1R or 1S)-1-(cyclobutylamino)-2,2,2-trifluoroethyl]phenyl}amino)-4-oxo-4,5-dihydro-1H-pyrazolo[4,3-c]pyridin-1-yl]tetrahydro-2H-pyran-4-carbonitrile]: 0.09 nM and 0.11 nM.
Regarding `CC1(C)CC1NC(c1ccc(Nc2nn([C@H]3COCC[C@@H]3C#N)c3cc[nH]c(=O)c23)cc1)C(F)(F)F` (single isomer, unassigned) [Example 1-49, (3R,4S)-3-{3-[(4S or 4R-{1S or 1R-[(2,2-dimethylcyclopropyl)amino]-2,2,2-trifluoroethyl}phenyl)amino]-4-oxo-4,5-dihydro-1H-pyrazolo[4,3-c]pyridin-1-yl}tetrahydro-2H-pyran-4-carbonitrile], the IC50 at JAK1 worked out at 0.18 nM; on JAK2 (setting [1]) it was 0.3 nM.
Take `N#C[C@H]1CCOCC1n1nc(Nc2ccc(C(O)(c3ccccn3)C(F)(F)F)cc2)c2c(=O)[nH]ccc21` (single isomer, unassigned) [Example 1-96, (3R,4S)-3-(4-oxo-3-((4-((S or R)-2,2,2-trifluoro-1-hydroxy-1-(pyridin-2-yl)ethyl)phenyl)amino)-4,5-dihydro-1H-pyrazolo[4,3-c]pyridin-1-yl)tetrahydro-2H-pyran-4-carbonitrile]: the IC50 stood at 0.07 nM on JAK1 and 0.15 nM at JAK2 (setting [1]).
Consider `CN(C)C(c1ccc(Nc2nn([C@H]3COCC[C@@H]3C#N)c3cc[nH]c(=O)c23)cc1)C(F)(F)F` (single isomer, unassigned) [Example 1-19, (3R,4S)-3-[3-({4-[(1S or 1R)-1-(dimethylamino)-2,2,2-trifluoroethyl]phenyl}amino)-4-oxo-4,5-dihydro-1H-pyrazolo[4,3-c]pyridin-1-yl]tetrahydro-2H-pyran-4-carbonitrile], for which the values for the IC50 on JAK1 and on JAK2 (setting [1]) were 0.05 nM and 0.08 nM, respectively.
Consider `CC(C)(C)NS(=O)(=O)c1ccc(Nc2nn([C@H]3COCC[C@@H]3C#N)c3cc[nH]c(=O)c23)cc1` [Example 1-10, N-(tert-butyl)-4-((1-((3R,4S)-4-cyanotetrahydro-2H-pyran-3-yl)-4-oxo-4,5-dihydro-1H-pyrazolo[4,3-c]pyridin-3-yl)amino)benzenesulfonamide], for which the IC50 came out at 0.08 nM at JAK1 and 0.21 nM at JAK2 (setting [2]).
In the case of `N#C[C@H]1CCOC[C@@H]1n1nc(Nc2ccc(C(N3CCCC3)C(F)(F)F)cc2)c2c(=O)[nH]ccc21` (single isomer, unassigned) [Example 1-43, (3R,4S)-3-[4-oxo-3-({4-[(1S or 1R)-2,2,2-trifluoro-1-pyrrolidin-1-ylethyl]phenyl}amino)-4,5-dihydro-1H-pyrazolo[4,3-c]pyridin-1-yl]tetrahydro-2H-pyran-4-carbonitrile], the IC50 came to 0.04 nM at JAK1 and 0.08 nM on JAK2 (setting [1]).
In the same order, the values of `CN1CCN(C(c2ccc(Nc3nn([C@H]4COCC[C@@H]4C#N)c4cc[nH]c(=O)c34)cc2)C(F)(F)F)CC1` (single isomer, unassigned) [Example 1-36, (3R,4S)-3-[4-oxo-3-({4-[(1R or 1S)-2,2,2-trifluoro-1-(4-methylpiperazin-1-yl)ethyl]phenyl}amino)-4,5-dihydro-1H-pyrazolo[4,3-c]pyridin-1-yl]tetrahydro-2H-pyran-4-carbonitrile] are 0.24 nM and 0.27 nM.
In the same order, the values of `C[S+]([O-])c1cc(Nc2nn([C@H]3COCC[C@@H]3C#N)c3cc[nH]c(=O)c23)ccc1F` (single isomer, unassigned) [Example 3-3, (3R,4S)-3-(3-((4-fluoro-3-((S or R)-methylsulfinyl)phenyl)amino)-4-oxo-4,5-dihydro-1H-pyrazolo[4,3-c]pyridin-1-yl)tetrahydro-2H-pyran-4-carbonitrile] are 1.64 nM and 7.44 nM.
With `CC1CCCN1C(c1ccc(Nc2nn([C@H]3COCC[C@@H]3C#N)c3cc[nH]c(=O)c23)cc1)C(F)(F)F` (single isomer, unassigned) [Example 1-89, (3R,4S)-3-{4-oxo-3-[(4-{(1R or 1S)-2,2,2-trifluoro-1-[(2R or 2S)-2-methylpyrrolidin-1-yl]ethyl}phenyl)amino]-4,5-dihydro-1H-pyrazolo[4,3-c]pyridin-1-yl}tetrahydro-2H-pyran-4-carbonitrile], the IC50 at JAK1 stood at 0.15 nM; on JAK2 (setting [1]) it was 0.14 nM.
